The record followed here is ChEMBL document CHEMBL5442741, “ASAP - In vitro kinase profile” (2024).

Assay [1] deals with PI3-kinase p110-alpha/p85-alpha (Homo sapiens) (UniProt P27986+P42336). Kind of assay: Enzymatic radiometric [Km ATP] KinaseProfiler LeadHunter assay, kinase: PI3 Kinase (p110-alpha/p85-alpha), catalogue number: 14-602KP The assay has been performed by Eurofins Discovery. In kind it is protein-complex assay. As to conditions: ATP concentration 200.0 uM, Test compound concentration 10.0 uM.

Assay [2] has as its target 5'-AMP-activated protein kinase catalytic subunit alpha-1 (Homo sapiens) (UniProt Q13131). Kind of assay: Enzymatic radiometric [Km ATP] KinaseProfiler LeadHunter assay, kinase: AMPK-alpha1, catalogue number: 14-840KP The assay has been performed by Eurofins Discovery. As to conditions: ATP concentration 45.0 uM, Test compound concentration 10.0 uM.
Assay [3] has as its target CDK7/Cyclin H/MNAT1 (Homo sapiens) (UniProt P51946+P50613+P51948). Kind of assay: Enzymatic radiometric [Km ATP] KinaseProfiler LeadHunter assay, kinase: CDK7/cyclinH/MAT1, catalogue number: 14-476KP The assay has been performed by Eurofins Discovery. The assay is classed as protein-complex assay. As to conditions: ATP concentration 90.0 uM, Test compound concentration 10.0 uM.

For assay [4], the target named is T1, Eukaryotic elongation factor 2 kinase (Homo sapiens) (UniProt O00418).
T1 sequence (whole entry): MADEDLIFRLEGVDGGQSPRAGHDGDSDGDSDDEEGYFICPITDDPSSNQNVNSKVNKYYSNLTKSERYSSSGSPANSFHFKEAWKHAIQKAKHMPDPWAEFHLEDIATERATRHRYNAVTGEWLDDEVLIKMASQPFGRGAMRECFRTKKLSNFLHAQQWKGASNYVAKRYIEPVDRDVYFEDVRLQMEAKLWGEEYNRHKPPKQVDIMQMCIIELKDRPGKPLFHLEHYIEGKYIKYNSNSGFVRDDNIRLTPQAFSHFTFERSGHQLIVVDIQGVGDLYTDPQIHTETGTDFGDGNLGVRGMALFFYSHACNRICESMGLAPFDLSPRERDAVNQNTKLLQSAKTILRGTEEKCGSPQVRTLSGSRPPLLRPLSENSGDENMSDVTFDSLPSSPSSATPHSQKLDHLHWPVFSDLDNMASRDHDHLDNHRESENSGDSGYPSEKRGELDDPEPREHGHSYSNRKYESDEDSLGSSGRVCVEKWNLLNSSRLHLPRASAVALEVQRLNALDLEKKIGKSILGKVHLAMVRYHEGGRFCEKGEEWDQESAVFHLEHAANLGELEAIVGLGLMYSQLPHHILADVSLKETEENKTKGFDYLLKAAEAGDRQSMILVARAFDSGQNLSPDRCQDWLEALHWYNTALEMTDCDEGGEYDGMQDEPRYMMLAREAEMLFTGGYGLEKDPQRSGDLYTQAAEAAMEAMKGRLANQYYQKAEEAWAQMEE
Kind of assay: Enzymatic radiometric [Km ATP] KinaseProfiler LeadHunter assay, kinase: eEF-2K, catalogue number: 14-654KP The assay has been performed by Eurofins Discovery. As to conditions: ATP concentration 15.0 uM, Test compound concentration 10.0 uM.

Assay [5] has as its target Cyclin-dependent kinase 2/cyclin A (Homo sapiens) (UniProt P24941+P20248+P78396). Kind of assay: Enzymatic radiometric [Km ATP] KinaseProfiler LeadHunter assay, kinase: CDK2/cyclinA, catalogue number: 14-448KP The assay has been performed by Eurofins Discovery. The assay is classed as protein-complex assay. Conditions: ATP concentration 45.0 uM, Test compound concentration 10.0 uM.

In assay [6] the target is Serine/threonine-protein kinase mTOR (Homo sapiens) (UniProt P42345). Kind of assay: Enzymatic radiometric [Km ATP] KinaseProfiler LeadHunter assay, kinase: mTOR, catalogue number: 14-769KP The assay has been performed by Eurofins Discovery. As to conditions: ATP concentration 70.0 uM, Test compound concentration 10.0 uM.
Assay [7] concerns the target Tyrosine-protein kinase JAK2 (Homo sapiens) (UniProt O60674). Kind of assay: Enzymatic radiometric [Km ATP] KinaseProfiler LeadHunter assay, kinase: JAK2, catalogue number: 14-640KP The assay has been performed by Eurofins Discovery. As to conditions: ATP concentration 45.0 uM, Test compound concentration 10.0 uM.
For assay [8], the target named is Phosphatidylinositol 4,5-bisphosphate 3-kinase catalytic subunit gamma isoform (Homo sapiens) (UniProt P48736). Kind of assay: Enzymatic radiometric [Km ATP] KinaseProfiler LeadHunter assay, kinase: PI3 Kinase (p120-gamma), catalogue number: 14-558KP The assay has been performed by Eurofins Discovery. As to conditions: ATP concentration 100.0 uM, Test compound concentration 10.0 uM.
Sequence of Phosphatidylinositol 4,5-bisphosphate 3-kinase catalytic subunit gamma isoform (Homo sapiens) (P48736 whole entry, looked up, canonical isoform): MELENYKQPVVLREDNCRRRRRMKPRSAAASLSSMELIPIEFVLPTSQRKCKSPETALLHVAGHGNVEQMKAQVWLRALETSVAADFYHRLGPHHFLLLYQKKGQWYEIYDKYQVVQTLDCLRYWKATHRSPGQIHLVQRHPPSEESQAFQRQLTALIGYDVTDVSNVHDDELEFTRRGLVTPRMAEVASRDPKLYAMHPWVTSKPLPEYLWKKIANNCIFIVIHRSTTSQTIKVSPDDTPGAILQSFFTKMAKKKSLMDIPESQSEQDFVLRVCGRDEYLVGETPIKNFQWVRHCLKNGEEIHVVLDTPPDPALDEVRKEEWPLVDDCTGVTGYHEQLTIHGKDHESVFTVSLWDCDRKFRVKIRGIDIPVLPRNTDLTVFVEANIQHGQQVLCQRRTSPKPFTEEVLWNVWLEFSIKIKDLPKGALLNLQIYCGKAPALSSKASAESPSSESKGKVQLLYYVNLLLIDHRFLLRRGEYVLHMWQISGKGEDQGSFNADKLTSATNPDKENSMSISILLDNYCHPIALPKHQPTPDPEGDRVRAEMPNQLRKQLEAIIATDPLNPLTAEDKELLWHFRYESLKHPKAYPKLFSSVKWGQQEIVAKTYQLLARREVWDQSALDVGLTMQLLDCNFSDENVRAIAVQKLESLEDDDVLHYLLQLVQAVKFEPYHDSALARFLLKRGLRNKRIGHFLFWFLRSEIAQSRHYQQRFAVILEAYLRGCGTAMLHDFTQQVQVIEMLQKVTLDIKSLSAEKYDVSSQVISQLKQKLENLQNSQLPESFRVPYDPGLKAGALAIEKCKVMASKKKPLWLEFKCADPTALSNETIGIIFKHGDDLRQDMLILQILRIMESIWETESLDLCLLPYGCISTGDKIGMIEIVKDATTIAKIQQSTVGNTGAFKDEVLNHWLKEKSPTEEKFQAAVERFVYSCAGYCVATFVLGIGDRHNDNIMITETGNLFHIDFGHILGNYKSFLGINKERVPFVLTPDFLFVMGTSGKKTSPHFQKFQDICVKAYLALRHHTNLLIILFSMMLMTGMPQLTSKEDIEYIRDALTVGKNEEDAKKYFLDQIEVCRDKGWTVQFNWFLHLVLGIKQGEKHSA

For assay [9], the target named is Ribosomal protein S6 kinase alpha-4 (Homo sapiens) (UniProt O75676). Kind of assay: Enzymatic radiometric [Km ATP] KinaseProfiler LeadHunter assay, kinase: MSK2, catalogue number: 14-616KP The assay has been performed by Eurofins Discovery. As to conditions: ATP concentration 45.0 uM, Test compound concentration 10.0 uM.
Sequence of Ribosomal protein S6 kinase alpha-4 (Homo sapiens) (O75676 whole entry, looked up): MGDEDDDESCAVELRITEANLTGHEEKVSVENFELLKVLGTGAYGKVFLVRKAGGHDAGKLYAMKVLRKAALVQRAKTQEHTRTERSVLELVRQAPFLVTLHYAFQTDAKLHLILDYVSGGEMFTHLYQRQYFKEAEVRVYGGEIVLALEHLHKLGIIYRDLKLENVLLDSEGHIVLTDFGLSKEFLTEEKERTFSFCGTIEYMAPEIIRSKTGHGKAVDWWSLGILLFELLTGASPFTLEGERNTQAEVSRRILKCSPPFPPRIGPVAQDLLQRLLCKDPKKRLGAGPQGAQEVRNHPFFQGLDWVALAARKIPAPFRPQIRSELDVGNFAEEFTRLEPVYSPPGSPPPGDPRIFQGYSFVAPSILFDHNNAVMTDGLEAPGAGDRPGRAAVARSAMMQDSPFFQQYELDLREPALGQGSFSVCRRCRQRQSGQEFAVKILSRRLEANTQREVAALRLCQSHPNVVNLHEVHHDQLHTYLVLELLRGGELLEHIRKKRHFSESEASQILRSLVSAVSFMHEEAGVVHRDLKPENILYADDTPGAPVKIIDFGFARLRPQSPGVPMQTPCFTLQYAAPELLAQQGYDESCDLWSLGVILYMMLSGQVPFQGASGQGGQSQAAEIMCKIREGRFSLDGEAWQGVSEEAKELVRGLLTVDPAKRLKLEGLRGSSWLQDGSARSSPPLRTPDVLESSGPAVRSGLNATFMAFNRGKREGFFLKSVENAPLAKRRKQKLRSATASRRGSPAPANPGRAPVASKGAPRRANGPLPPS
Assay [10] concerns the target Rho-associated protein kinase 1 (Homo sapiens) (UniProt Q13464). Kind of assay: Enzymatic radiometric [Km ATP] KinaseProfiler LeadHunter assay, kinase: ROCK-I, catalogue number: 14-601KP The assay has been performed by Eurofins Discovery. Conditions: ATP concentration 70.0 uM, Test compound concentration 10.0 uM.
In assay [11] the target is Tyrosine-protein kinase ABL1 (Homo sapiens) (UniProt P00519). Kind of assay: Enzymatic radiometric [Km ATP] KinaseProfiler LeadHunter assay, kinase: Abl, catalogue number: 14-529KP The assay has been performed by Eurofins Discovery. Conditions: ATP concentration 45.0 uM, Test compound concentration 10.0 uM.
Sequence of Tyrosine-protein kinase ABL1 (Homo sapiens) (P00519 whole entry): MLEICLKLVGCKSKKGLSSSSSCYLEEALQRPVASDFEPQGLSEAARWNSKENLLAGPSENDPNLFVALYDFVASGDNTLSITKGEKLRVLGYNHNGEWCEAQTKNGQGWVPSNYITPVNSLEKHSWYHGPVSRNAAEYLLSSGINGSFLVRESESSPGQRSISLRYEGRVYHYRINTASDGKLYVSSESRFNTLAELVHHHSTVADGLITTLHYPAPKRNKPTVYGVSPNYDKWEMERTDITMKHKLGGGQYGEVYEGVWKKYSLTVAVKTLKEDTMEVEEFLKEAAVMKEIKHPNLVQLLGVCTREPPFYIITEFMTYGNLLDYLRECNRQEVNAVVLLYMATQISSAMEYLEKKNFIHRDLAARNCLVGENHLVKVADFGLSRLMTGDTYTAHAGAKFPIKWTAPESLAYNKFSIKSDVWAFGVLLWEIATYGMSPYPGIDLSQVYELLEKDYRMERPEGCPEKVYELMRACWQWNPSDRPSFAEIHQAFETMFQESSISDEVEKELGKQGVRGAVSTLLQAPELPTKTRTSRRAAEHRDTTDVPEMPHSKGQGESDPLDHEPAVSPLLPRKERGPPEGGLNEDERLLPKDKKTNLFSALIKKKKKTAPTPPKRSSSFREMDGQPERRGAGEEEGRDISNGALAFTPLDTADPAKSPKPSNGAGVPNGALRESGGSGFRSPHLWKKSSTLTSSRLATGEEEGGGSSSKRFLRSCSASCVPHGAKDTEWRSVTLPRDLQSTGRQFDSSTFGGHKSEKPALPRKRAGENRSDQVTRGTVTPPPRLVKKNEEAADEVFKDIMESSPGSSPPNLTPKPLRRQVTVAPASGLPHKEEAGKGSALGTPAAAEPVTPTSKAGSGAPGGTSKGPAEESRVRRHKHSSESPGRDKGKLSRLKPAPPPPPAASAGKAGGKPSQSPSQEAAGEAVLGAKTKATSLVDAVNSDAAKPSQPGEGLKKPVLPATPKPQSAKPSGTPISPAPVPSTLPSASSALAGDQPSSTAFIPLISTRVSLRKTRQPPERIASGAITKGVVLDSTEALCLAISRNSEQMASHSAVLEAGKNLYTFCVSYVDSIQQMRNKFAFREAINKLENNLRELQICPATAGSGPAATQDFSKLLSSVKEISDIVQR
Assay [12] has as its target Cyclin-dependent kinase 1/cyclin B (Homo sapiens) (UniProt P06493+P14635+Q8WWL7+O95067). Kind of assay: Enzymatic radiometric [Km ATP] KinaseProfiler LeadHunter assay, kinase: CDK1/cyclinB, catalogue number: 14-450KP The assay has been performed by Eurofins Discovery. The assay is classed as protein-complex assay. As to conditions: ATP concentration 45.0 uM, Test compound concentration 10.0 uM.

Assay [13] deals with Ribosomal protein S6 kinase beta-1 (Homo sapiens) (UniProt P23443). Kind of assay: Enzymatic radiometric [Km ATP] KinaseProfiler LeadHunter assay, kinase: p70S6K, catalogue number: 14-486KP The assay has been performed by Eurofins Discovery. Conditions: ATP concentration 15.0 uM, Test compound concentration 10.0 uM.
Assay [14] addresses Platelet-derived growth factor receptor beta (Homo sapiens) (UniProt P09619). Kind of assay: Enzymatic radiometric [Km ATP] KinaseProfiler LeadHunter assay, kinase: PDGFR-beta, catalogue number: 14-463KP The assay has been performed by Eurofins Discovery. Conditions: ATP concentration 200.0 uM, Test compound concentration 10.0 uM.
Assay [15] deals with RAC-alpha serine/threonine-protein kinase (Homo sapiens) (UniProt P31749). Kind of assay: Enzymatic radiometric [Km ATP] KinaseProfiler LeadHunter assay, kinase: PKB-alpha, catalogue number: 14-276KP The assay has been performed by Eurofins Discovery. As to conditions: ATP concentration 155.0 uM, Test compound concentration 10.0 uM.
Sequence of RAC-alpha serine/threonine-protein kinase (Homo sapiens) (P31749 whole entry): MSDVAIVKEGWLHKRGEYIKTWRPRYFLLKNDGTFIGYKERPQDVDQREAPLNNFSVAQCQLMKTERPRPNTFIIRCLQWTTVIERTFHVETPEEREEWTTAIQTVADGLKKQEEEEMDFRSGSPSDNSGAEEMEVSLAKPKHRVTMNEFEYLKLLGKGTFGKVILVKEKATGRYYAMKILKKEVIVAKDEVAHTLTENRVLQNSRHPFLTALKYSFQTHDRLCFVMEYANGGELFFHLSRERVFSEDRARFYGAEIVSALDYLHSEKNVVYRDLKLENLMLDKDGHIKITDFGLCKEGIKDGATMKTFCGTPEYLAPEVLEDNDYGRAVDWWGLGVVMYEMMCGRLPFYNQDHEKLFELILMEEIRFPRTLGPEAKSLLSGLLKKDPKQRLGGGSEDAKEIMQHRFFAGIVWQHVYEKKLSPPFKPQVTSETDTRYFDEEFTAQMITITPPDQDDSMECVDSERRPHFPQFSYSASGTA
Assay [16] has as its target Glycogen synthase kinase-3 beta (Homo sapiens) (UniProt P49841). Kind of assay: Enzymatic radiometric [Km ATP] KinaseProfiler LeadHunter assay, kinase: GSK3-beta, catalogue number: 14-306KP The assay has been performed by Eurofins Discovery. As to conditions: ATP concentration 15.0 uM, Test compound concentration 10.0 uM.
For assay [17], the target named is Tyrosine-protein kinase Fyn (Homo sapiens) (UniProt P06241). Kind of assay: Enzymatic radiometric [Km ATP] KinaseProfiler LeadHunter assay, kinase: Fyn, catalogue number: 14-441KP The assay has been performed by Eurofins Discovery. As to conditions: ATP concentration 70.0 uM, Test compound concentration 10.0 uM.
Sequence of Tyrosine-protein kinase Fyn (Homo sapiens) (P06241 2-537 limits assumed): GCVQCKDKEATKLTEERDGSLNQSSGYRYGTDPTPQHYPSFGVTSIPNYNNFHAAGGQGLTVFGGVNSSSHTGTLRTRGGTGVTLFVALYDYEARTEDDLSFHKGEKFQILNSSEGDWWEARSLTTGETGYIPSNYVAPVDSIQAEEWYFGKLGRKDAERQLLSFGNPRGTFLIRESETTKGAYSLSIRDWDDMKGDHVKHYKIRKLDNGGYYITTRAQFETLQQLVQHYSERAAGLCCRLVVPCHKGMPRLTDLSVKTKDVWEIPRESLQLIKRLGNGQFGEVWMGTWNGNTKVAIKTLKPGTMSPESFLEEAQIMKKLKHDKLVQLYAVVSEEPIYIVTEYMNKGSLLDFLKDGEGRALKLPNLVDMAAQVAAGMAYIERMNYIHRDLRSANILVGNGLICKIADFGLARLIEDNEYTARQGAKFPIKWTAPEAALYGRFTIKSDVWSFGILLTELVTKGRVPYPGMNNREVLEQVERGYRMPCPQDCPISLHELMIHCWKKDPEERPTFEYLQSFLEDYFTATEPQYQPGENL
In assay [18] the target is Casein kinase I isoform gamma-1 (Homo sapiens) (UniProt Q9HCP0). Kind of assay: Enzymatic radiometric [Km ATP] KinaseProfiler LeadHunter assay, kinase: CK1-gamma1, catalogue number: 14-711KP The assay has been performed by Eurofins Discovery. As to conditions: ATP concentration 15.0 uM, Test compound concentration 10.0 uM.

Where “and” joins values, the source holds several entries; their conditions need not be identical. Equal values may be shown once.

Sequence of Glycogen synthase kinase-3 beta (Homo sapiens) (P49841 whole entry, looked up): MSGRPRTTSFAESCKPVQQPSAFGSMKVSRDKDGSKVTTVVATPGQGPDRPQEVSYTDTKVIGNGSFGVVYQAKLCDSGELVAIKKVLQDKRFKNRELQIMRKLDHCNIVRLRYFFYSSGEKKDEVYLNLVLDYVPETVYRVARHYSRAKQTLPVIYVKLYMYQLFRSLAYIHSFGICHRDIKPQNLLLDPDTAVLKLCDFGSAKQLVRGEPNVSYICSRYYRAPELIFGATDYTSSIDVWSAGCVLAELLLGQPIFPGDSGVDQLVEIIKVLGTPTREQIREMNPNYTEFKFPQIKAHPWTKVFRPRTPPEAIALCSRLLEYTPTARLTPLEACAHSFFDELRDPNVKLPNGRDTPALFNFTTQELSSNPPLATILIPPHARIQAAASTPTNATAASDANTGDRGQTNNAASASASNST
Sequence of 5'-AMP-activated protein kinase catalytic subunit alpha-1 (Homo sapiens) (Q13131 whole entry, looked up): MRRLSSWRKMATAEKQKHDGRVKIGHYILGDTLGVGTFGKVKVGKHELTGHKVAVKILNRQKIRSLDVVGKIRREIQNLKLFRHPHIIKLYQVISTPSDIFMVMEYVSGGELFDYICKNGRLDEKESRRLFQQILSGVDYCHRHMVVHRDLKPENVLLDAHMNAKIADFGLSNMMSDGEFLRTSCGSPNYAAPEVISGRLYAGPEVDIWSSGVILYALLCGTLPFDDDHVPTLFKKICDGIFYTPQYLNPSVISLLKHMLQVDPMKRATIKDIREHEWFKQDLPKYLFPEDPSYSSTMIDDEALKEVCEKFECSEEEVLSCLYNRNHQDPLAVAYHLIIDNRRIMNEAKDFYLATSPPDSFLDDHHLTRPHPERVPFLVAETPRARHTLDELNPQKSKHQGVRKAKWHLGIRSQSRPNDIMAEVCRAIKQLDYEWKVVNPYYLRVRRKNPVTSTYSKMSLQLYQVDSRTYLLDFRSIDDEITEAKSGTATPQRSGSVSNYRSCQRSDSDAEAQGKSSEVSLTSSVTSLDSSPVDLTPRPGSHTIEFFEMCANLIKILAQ

Regarding `CC(C)[C@H](Nc1ncnc2[nH]ccc12)c1ccc2c(c1)S(=O)(=O)CCC2`, the Activity is 94% in [1]; 104% in assay [2]; 89% in assay [3]; 93% in assay [4]; 102% in assay [5]; 99% in assay [6]. The Activity in [7] came to 99%; in assay [8], 98%; in [9], 92%; in assay [10], 115%; in assay [11], 105%; in assay [12], 93%. In addition, the Activity in assay [13] came out at 103%; in assay [14], 89%; in [15], 95%; in [16], 94%; in assay [17], 96%; in assay [18], 97%.
With `Cc1nn(C)cc1-c1cc2c(N[C@H](c3ccc4c(c3)S(=O)(=O)CCC4)C(C)C)ncnc2[nH]1`, the Activity in assay [1] stood at 102%; in assay [2], 102%; in assay [3], 93%; in assay [4] it was 98%; in assay [5], 107%; in assay [6], 96%. The Activity in [7] worked out at 111%; in assay [8] it was 96%; in [9] it was 105%; in assay [10], 103%; in assay [11], 76%; in assay [12] it was 91%. Besides, the Activity in assay [13] turned out to be 108%; in assay [14], 97%; in [15], 91%; in assay [16], 96%; in assay [17], 32%; in [18] it was 99%.
Turning to `CC(C)[C@H](Nc1ncnc2[nH]c(-c3cnn(C)c3C#N)cc12)c1ccc2c(n1)OCCO2`, the Activity in assay [1] was found to be 70%; in assay [2], 111%; in [3] it was 98%; in [4] it was 108%; in [5], 104%; in assay [6] it was 104%. Further, the Activity in assay [7] stood at 115%; in [8] it was 80%; in [9], 114%; in assay [10] it was 115%; in assay [11] it was 57%; in [12], 89%. The Activity in [13] amounted to 125%; in assay [14] it was 92%; in [15], 90%; in [16], 98%; in [17], 80%; in assay [18] it was 100%.
`CC(C)[C@@H](Nc1ncnc2[nH]ccc12)c1ccc2c(c1)S(=O)(=O)CCC2`: the Activity in assay [1] turned out to be 104%; in assay [2], 94%; in [3], 85%; in assay [4] it was 92%; in assay [5] it was 96%; in assay [6] it was 102%. Also, the Activity in assay [7] turned out to be 110%; in [8], 103%; in assay [9], 99%; in assay [10] it was 110%; in assay [11] it was 93%; in [12] it was 129%. Besides, the Activity was found to be 98% in assay [13]; 99% in assay [14]; 96% in assay [15]; 107% in [16]; 127% in [17]; 102% in assay [18].
For `CC(C)[C@@H](Nc1ncnc2[nH]c(-c3cnn(C)c3C#N)cc12)c1ccc2c(n1)OCCO2`, the Activity is 49% and 55% in assay [1]; 116% and 99% in assay [2]; 101% and 102% in [3]; 111% and 106% in [4]; 95% and 104% in assay [5]; 83% and 102% in assay [6]. Besides, the Activity in assay [7] is 101% and 123%; in assay [8] it was 63% and 78%; in assay [9] it was 103% and 122%; in assay [10], 93% and 107%; in [11], 52% and 57%; in assay [12], 95% and 88%. Also, the Activity in assay [13] is 82% and 106%; in assay [14], 108% and 93%; in assay [15], 95% and 94%; in assay [16], 85% and 101%; in assay [17] it was 56% and 55%; in [18], 87% and 99%.
On to `C[C@H](C(=O)O)[C@@H](NC(=O)c1ncnc2[nH]ccc12)c1ccc(Br)cc1`, for which the Activity in [1] turned out to be 100%; in assay [2], 93%; in assay [3], 99%; in [4], 85%; in [5] it was 102%; in assay [6] it was 100%. Further, the Activity in [7] was determined as 99%; in assay [8], 97%; in assay [9], 90%; in [10], 90%; in assay [11] it was 97%; in [12], 92%. Moreover, the Activity was 97% in [13]; 110% in [14]; 95% in [15]; 93% in assay [16]; 98% in assay [17]; 92% in [18].
`CNC(=O)Cn1cc(-c2cc3c(N[C@@H](c4ccc5c(c4)S(=O)(=O)CCC5)C(C)C)ncnc3[nH]2)cn1`: the Activity in assay [1] amounted to 102%; in [2], 104%; in assay [3], 95%; in assay [4], 94%; in assay [5] it was 95%; in assay [6], 104%. Moreover, the Activity worked out at 94% in assay [7]; 93% in assay [8]; 92% in [9]; 104% in assay [10]; 72% in assay [11]; 88% in assay [12]. Moreover, the Activity came out at 100% in assay [13]; 90% in assay [14]; 95% in [15]; 98% in assay [16]; 65% in assay [17]; 97% in assay [18].
